One block for each compound: values may come before it.
Legend:
[1] = target: T1, human TRPV1 (Homo sapiens (Human), UniProt Q8NER1); experiment: pH-based assay, Protocol 2, TRPV1/CHO cells (hpH-CHO), Fura-2 Ca2+ influx; type: cell-based; conditions: pH 5.0-5.1 (H2SO4), mean ± SEM
[2] = target: T1, human TRPV1; experiment: Human TRPV1 heat-based assay, hTRPV1/CHO cells (hHeat-CHO); type: cell-based; conditions: temperature ramp 25 to 45 °C, mean ± SEM
Experimental: Human TRPV1 Heat-based Assay:
CHO cells stably expressing human TRPV1 (hTRPV1) were used. Functional assessment of heat-induced activation of hTRPV1 was carried out in a cell-based Ca^2+ flux assay using ABI7500 Fast Real-Time PCR System as described in Reubish et al., “Functional assessment of temperature-gated ion-channel activity using a real-time PCR machine,” www.BioTechniques.com 47(3):iii-ix (2009), which is hereby incorporated by reference. Briefly, hTRPV1/CHO cells were cultured in growth media in a tissue culture dish at 37° C. in a CO2 incubator. On the day of the assay, culture media were removed and the cells were then detached using 0.05% trypsin at 37° C. with 5% CO2, for 90 s. The detached cells were centrifuged (1000 rpm, 4 min) to remove trypsin-containing supernatant and resuspended in assay buffer (115 mM NaCl, 5.4 mM KCl, 0.8 mM MgCl2.6H2O, 1.8 mM CaCl2.2H2O, 13.8 mM D-glucose, and 20 mM HEPES). Then, the cells were loaded with 5 μM Fluo-4, a Ca^2+ reporter dye, in the presence of 2.5 mM probenecid at 37° C. with 5% CO2, for 45 min. Thereafter, the cells were washed twice with measuring buffer (assay buffer supplemented with 0.1% BSA and 3.2 mM CaCl2) then transferred to a Fast 96-well Reaction Plate (0.1 mL) (Part no. 4346907, MICROAMP, Applied Biosystems, Foster City, Calif.). The cell density was 100,000 cells/24 μL/well. A solution of the compound under test (6 μL/well) was added into each well of the 96-well plate. Thus, the reaction volume per well was 30 μL.
The plates were then placed inside an ABI7500 Fast Real-Time PCR instrument (Applied Biosystems) to read fluorescence at different temperatures using 7500 software, version 2.0.2 (Applied Biosystems). The initial temperature was set at 25° C. for 1 min. followed by a temperature ramp to 45° C. in 100 s to deliver heat to cells. [Ca^2+], response of hTRPV1/CHO cells to heat was determined as: [fluorescence read at 45° C.−fluorescence read at 25° C.].
Compound concentration response curves and IC50 values were analyzed using GraphPad Prism 4 software (GraphPad Software, La Jolla, Calif.).
The IC50 data provided in Table 6 are shown as mean±standard error of the mean; the number of trials conducted for each assay is shown in parentheses except for only a single trial where no number of trials is shown in parentheses.

T1 sequence (Q8NER1 whole entry, looked up): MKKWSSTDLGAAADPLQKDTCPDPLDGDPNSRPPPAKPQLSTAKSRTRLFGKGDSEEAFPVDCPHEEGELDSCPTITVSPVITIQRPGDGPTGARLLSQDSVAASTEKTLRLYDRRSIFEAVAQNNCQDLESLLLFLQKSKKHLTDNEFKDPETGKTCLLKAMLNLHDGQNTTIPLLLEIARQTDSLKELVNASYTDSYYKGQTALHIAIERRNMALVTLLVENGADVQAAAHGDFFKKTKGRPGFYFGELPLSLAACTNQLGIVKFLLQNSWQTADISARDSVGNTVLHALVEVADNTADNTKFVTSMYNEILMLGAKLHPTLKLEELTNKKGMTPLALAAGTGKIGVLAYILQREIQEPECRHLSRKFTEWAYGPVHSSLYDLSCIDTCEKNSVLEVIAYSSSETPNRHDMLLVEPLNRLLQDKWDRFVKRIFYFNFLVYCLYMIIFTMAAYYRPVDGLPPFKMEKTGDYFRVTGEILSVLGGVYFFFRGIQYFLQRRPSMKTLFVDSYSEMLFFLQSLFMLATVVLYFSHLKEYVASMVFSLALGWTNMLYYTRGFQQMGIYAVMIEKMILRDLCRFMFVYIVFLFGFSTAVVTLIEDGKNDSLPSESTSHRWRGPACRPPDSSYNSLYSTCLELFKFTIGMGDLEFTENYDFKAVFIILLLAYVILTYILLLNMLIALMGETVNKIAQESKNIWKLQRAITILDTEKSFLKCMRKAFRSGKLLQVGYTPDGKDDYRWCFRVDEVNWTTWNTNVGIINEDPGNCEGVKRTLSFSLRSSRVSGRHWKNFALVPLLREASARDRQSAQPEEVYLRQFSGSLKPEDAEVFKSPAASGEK

Structure (SMILES): Cc1cc2nc(NC(=O)N3CCN(c4ncc([C@H](O)[C@H](C)O)cc4F)CC3)sc2cc1C [C170(r), 4-(5-((1S,2S)-1,2-dihydroxypropyl)-3-fluoropyridin-2-yl)-N-(5,6-dimethylbenzo[d]thiazol-2-yl)piperazine-1-carboxamide]
IC50 [2]: 170 ± 20 nM
IC50 [1]: 32.8 ± 8.1 nM

Structure (SMILES): C[C@@H]1CN(C(=O)Nc2nc3ccc(F)cc3s2)CCN1c1ncc([C@H](O)CO)cc1F [A125(b), (R)-4-{5-[(S)-1,2-dihydroxyethyl]-3-fluoropyridin-2-yl}-N-(6-fluorobenzo[d]thiazol-2-yl)-3-methylpiperazine-1-carboxamide]
IC50 [2]: 389 ± 83 nM
IC50 [1]: 81 ± 13 nM

Structure (SMILES): C[C@H](O)[C@@H](O)c1cnc(N2CCN(C(=O)Nc3nc4ccc(F)cc4s3)CC2)c(Cl)c1 [C4(r), 4-{3-Chloro-5-[(1S,2S)-1,2-dihydroxypropyl]pyridin-2-yl}-N-(6-fluorobenzo[d]thiazol-2-yl)piperazine-1-carboxamide]
IC50 [2]: 87 ± 13 nM
IC50 [1]: 17.4 ± 1.2 nM

Structure (SMILES): Cc1ccc2nc(NC(=O)N3CCN(c4ncc([C@H](O)CO)cc4F)C[C@@H]3C)sc2c1 [A126(a), (S)-4-(5-((S)-1,2-dihydroxyethyl)-3-fluoropyridin-2-yl)-2-methyl-N-(6-methylbenzo[d]thiazol-2-yl)piperazine-1-carboxamide]
IC50 [1]: 12.2 ± 5.9 nM

Structure (SMILES): C[C@H]1CN(c2ncc([C@H](O)CO)cc2F)CCN1C(=O)Nc1nc2ccccc2s1 [A122(a), (S)—N-(benzo[d]thiazol-2-yl)-4-(5-((S)-1,2-dihydroxyethyl)-3-fluoropyridin-2-yl)-2-methylpiperazine-1-carboxamide]
IC50 [1]: 98 ± 27 nM

Next, values leading:

IC50 [1]: 136 ± 20 nM
Structure (SMILES): C[C@H](O)[C@@H](O)c1cnc(N2CCN(C(=O)Nc3nc4cc(F)c(F)cc4s3)C[C@H]2C)c(F)c1 [B158(j), (R)—N-(5,6-difluorobenzo[d]thiazol-2-yl)-4-{5-[(1S,2S)-1,2-dihydroxypropyl]-3-fluoropyridin-2-yl}-3-methylpiperazine-1-carboxamide]

IC50 [1]: 17.1 nM
Structure (SMILES): C[C@H]1CN(c2ncc([C@H](O)CO)cc2F)CCN1C(=O)Nc1nc2cc(F)c(F)cc2s1 [A158(a), (S)—N-(5,6-difluorobenzo[d]thiazol-2-yl)-4-(5-((S)-1,2-dihydroxyethyl)-3-fluoropyridin-2-yl)-2-methylpiperazine-1-carboxamide]

IC50 [2]: 335 ± 40 nM
IC50 [1]: 69 ± 3 nM
Structure (SMILES): C[C@H](O)[C@@H](O)c1cnc(N2CCN(C(=O)Nc3nc4ccc(F)cc4s3)CC2)c(F)c1 [C125(r), 4-(5-((1S,2S)-1,2-dihydroxypropyl)-3-fluoropyridin-2-yl)-N-(6-fluorobenzo[d]thiazol-2-yl)piperazine-1-carboxamide]

IC50 [2]: 155 ± 25 nM
IC50 [1]: 67 ± 12 nM
Structure (SMILES): Cc1ccc2nc(NC(=O)N3CCN(c4ncc([C@H](O)[C@H](C)O)cc4F)CC3)sc2c1 [C126(r), 4-[5-((1S,2S)-1,2-Dihydroxy-propyl)-3-fluoro-pyridin-2-yl]piperazine-1-carboxylic acid (6-methyl-benzothiazol-2-yl)-amide]

IC50 [2]: 101.5 ± 0.8 nM
IC50 [1]: 40.8 ± 3.2 nM
Structure (SMILES): C[C@@H]1CN(C(=O)Nc2nc3cc(F)c(F)cc3s2)CCN1c1ncc([C@H](O)CO)cc1F [AE, (R)—N-(5,6-difluorobenzo[d]thiazol-2-yl)-4-{5-[(S)-1,2-dihydroxyethyl]-3-fluoropyridin-2-yl}-3-methylpiperazine-1-carboxamide]

From US9273043B2, “TRPV1 antagonists including dihydroxy substituent and uses thereof” (Purdue Pharma L.P., priority 2011, dated 2016)
